Values joined by “and” are separate entries in the source; they are usually repeats but may differ in a detail not shown here. Identical values can stand only once.
Key:
[1] = target: M1 (Homo sapiens, UniProt P11229); assay: CNS receptor binding, muscarinic M1; details: CHO cell line, [3H]-NMS(1)
Protocol: (§1) Albiflorin (10 μM) was tested for numerous other potential binding targets by using standard receptor binding procedures. The tested targets included the following receptors: D1, D2, D3, D4, D5, 5-HT1A, 5-HT1B, 5-HT1D, 5-HT2a, 5-HT2C, 5-HT3, 5-HT5A, 5-HT6, 5-HT7, α1A, α1B, α2A, β1, M1, M2, M3, M4, M5, μ, κ, δ, A1, A2A, H1, H2, H3, H4.

[2] = target: 5-HT5A (Homo sapiens, UniProt P47898); assay: CNS receptor binding, 5-HT5A; details: HEK293 cell line, [3H]-LSD(1)
Sequence of 5-HT5A (P47898 whole entry): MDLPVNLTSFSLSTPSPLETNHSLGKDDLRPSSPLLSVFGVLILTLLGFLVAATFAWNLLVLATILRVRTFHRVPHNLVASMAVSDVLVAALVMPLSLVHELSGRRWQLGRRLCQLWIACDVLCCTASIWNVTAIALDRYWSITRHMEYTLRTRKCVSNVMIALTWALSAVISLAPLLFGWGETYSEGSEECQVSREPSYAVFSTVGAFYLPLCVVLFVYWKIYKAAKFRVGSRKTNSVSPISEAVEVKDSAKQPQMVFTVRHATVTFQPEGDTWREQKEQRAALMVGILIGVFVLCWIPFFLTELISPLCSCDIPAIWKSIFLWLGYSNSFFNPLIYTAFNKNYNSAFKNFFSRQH
Protocol: as §1

[3] = target: H4 (Homo sapiens, UniProt Q9H3N8); assay: CNS receptor binding, histamine H4; details: CHO cell line, [3H]-histamine(1)
Sequence of H4 (Q9H3N8 whole entry): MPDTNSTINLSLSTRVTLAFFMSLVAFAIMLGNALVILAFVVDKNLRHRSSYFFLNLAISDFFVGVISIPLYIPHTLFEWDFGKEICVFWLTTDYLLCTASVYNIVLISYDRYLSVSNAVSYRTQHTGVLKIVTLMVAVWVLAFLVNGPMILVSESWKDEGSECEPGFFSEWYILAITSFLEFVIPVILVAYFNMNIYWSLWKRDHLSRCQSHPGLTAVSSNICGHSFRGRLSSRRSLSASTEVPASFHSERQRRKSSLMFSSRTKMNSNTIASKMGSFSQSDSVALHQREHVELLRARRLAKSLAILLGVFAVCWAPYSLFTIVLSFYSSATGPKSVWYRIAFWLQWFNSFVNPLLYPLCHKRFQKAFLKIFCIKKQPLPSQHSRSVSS
Protocol: as §1

[4] = target: T1, DAT (Rattus norvegicus, UniProt P23977); type: biochemical; details: Striatum synaptosome, read-out: IC50 values, uptake of [3H]-DA (DAT)
T1 construct: rat brain synaptosomes were prepared and treated with various concentrations of albiflorin; from tissue; host or cells: Sprague-Dawley rat striatal synaptosomes
Protocol: (§2) Male Sprague–Dawley rats were killed by asphyxiation with carbon dioxide and cervical dislocation followed by decapitation. The brains were removed quickly and the cerebral cortex, hypothalamus and striatum were dissected on ice. All dissected tissues were homogenised using a Teflon-glass tissue homogeniser in 4 mL of ice-cold sucrose (0.32 M). The homogenised tissue was centrifuged at 2,000× g for 10 min at 4 °C. […] Bio-Rad protein assay reagents (1:5 ratio) were used to analyse the protein concentration of the synaptosomal suspension. Uptake of 5-HT, NE and DA was determined as described previously. The compounds to be tested were dissolved in DMSO, further diluted with assay buffer, and tested over a 10-log unit concentration range in duplicate. Samples of 30–50 μg of synaptosomes (per sample in a total volume of 200 μL) were preincubated at 37 °C in a shaking water bath for 10 min. Vehicle or modifiers were then added for 10–20 min. Uptake was initiated by adding [^3H]-5-HT (20 nM), [^3H]-NE (20 nM), or [^3H]-DA (50 nM). After a 10-min incubation at 37 °C, uptake was terminated by filtration through (polyethyleneimine-coated) GF/B Whatman filters using a Brandel Cell Harvester (Brandel, Gaithersburg, MD).
(§3) All data for inhibition curves were analysed by nonlinear regression using Prism software (GraphPad Software Inc., San Diego, CA) to determine IC50 values. […]

[5] = target: NET (Rattus norvegicus, UniProt Q63380); type: biochemical; details: Frontal cortex synaptosome, read-out: IC50 values, uptake of [3H]-NE (NET)
Sequence of NET (Q63380 1-617): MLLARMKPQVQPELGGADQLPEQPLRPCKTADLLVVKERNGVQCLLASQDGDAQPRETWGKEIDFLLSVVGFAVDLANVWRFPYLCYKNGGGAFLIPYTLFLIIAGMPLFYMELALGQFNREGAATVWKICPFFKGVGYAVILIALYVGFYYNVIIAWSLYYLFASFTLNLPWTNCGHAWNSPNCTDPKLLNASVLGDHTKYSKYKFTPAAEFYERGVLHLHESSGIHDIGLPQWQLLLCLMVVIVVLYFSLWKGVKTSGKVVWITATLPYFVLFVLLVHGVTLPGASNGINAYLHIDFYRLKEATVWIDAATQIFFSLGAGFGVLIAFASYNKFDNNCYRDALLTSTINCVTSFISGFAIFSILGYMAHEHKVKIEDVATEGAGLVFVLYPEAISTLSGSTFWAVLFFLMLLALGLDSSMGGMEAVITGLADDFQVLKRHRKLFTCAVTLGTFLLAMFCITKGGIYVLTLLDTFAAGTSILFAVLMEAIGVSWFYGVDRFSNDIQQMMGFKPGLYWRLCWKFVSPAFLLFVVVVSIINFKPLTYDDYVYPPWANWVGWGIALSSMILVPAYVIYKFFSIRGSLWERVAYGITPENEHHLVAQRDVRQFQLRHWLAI
Protocol: as §2, §3

[6] = target: 5-HT3 (Homo sapiens, UniProt P46098); assay: CNS receptor binding, 5-HT3; details: HEK293 cell line
Protocol: as §1

[7] = target: H1 (Homo sapiens, UniProt P35367); assay: CNS receptor binding, histamine H1; details: CHO cell line, [3H]-pyrilamine(2)
Sequence of H1 (P35367 whole entry): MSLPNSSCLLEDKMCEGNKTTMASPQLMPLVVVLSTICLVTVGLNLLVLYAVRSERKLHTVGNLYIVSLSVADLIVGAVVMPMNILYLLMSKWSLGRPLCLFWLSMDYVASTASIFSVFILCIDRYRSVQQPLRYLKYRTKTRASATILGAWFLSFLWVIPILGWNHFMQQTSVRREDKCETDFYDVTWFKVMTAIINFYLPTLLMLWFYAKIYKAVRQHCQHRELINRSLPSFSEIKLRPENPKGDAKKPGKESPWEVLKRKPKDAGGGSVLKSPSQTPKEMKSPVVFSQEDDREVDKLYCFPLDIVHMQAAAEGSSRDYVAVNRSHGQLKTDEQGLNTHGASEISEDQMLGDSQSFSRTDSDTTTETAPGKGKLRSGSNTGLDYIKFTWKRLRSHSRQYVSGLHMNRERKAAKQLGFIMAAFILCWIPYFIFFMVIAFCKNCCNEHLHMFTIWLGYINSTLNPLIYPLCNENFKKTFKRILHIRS
Protocol: as §1

[8] = target: T2, rat NET (Rattus norvegicus, UniProt Q63380); assay: Rat monoamine transporter binding assay, NET
T2 construct: from tissue; host or cells: Sprague-Dawley rat hypothalamus membranes
T2 sequence (Q63380 1-617): as the sequence (Q63380 1-617) above
Protocol: Male Sprague–Dawley rats were killed by cervical dislocation, and their brains were rapidly removed and then dissected on ice. The cerebral cortex, hypothalamus and striatum were homogenised in 4 mL of assay buffer (50 mM Tris–HCl buffer, pH 7.4.) and centrifuged at 40,000× g for 10 min at 4 °C. The pellets were centrifuged twice at 20,000× g and then resuspended in 4 mL of assay buffer. […] Bio-Rad protein assay reagents (1:5 ratio) were used to analyse the protein concentration of the synaptosomal suspension.
(§4) All data for inhibition curves were analysed by nonlinear regression using Prism software (GraphPad Software Inc., San Diego, CA) to determine IC50 values. For the microdialysis experiments, two-way repeated-measures ANOVA followed by Tukey’s test was used to compare the percentage increase over baseline between groups, time and treatment as independent factors, and time as the repeated factor.

[9] = target: T3, hSERT (Homo sapiens, UniProt P31645); type: binding
T3 construct: expressed in transfected cells
T3 sequence (P31645 whole entry): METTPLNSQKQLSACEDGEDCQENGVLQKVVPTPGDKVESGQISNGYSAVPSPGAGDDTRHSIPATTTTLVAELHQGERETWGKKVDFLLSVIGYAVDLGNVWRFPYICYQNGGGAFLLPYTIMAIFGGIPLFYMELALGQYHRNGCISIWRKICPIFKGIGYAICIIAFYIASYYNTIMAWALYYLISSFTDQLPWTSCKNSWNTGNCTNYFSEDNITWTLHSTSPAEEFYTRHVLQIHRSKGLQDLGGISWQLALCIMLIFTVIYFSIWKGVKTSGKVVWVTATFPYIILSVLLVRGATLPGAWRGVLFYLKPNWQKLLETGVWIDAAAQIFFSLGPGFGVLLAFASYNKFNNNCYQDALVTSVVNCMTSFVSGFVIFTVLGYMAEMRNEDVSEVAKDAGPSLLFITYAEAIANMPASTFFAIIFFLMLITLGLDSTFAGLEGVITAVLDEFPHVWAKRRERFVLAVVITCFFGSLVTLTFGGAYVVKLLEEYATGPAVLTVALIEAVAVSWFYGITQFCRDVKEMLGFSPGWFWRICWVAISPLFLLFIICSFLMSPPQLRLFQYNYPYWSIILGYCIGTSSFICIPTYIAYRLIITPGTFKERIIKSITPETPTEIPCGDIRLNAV
Protocol: Membranes were prepared from HEK293 cells stably expressing hSERT, hNET, or hDAT as described previously. Briefly, [^3H]-citalopram (1 nM), [^3H]-nisoxetine (2 nM), or [^3H]-WIN35,428 (2 nM) was used to label human 5-HT, NE, or DA transporters, respectively.
as §4

[10] = target: α2A (Rattus norvegicus, UniProt P22909); assay: CNS receptor binding, NE receptor α2A; details: Rat Cortex, [3H]-clonidine(2)
Protocol: as §1

[11] = target: T4, D1 (Homo sapiens, UniProt P21728); assay: CNS receptor binding, dopamine D1; details: HEK293 cell line, [3H]-SCH23390(1)
T4 construct: expressed in transfected cells; host or cells: HEK293 cell line
Protocol: as §1

[12] = target: α1A (Rattus norvegicus, UniProt P43140); assay: CNS receptor binding, NE receptor α1A; details: Rat Frontal cortex, [3H]-parzosin(1)
Sequence of α1A (P43140 whole entry): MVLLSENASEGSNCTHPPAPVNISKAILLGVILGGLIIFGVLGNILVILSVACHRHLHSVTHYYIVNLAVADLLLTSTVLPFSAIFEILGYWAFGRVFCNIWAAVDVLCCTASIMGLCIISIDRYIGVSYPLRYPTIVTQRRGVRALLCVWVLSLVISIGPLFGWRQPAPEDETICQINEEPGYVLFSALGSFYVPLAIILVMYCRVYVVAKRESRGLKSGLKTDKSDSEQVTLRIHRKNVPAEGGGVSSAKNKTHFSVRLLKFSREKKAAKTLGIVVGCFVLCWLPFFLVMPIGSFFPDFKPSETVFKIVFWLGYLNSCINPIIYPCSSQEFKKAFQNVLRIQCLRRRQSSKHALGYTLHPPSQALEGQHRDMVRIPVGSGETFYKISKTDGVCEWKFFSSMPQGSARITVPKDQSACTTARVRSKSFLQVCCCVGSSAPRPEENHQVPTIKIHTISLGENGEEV
Protocol: as §1

[13] = target: 5-HT6 (Homo sapiens, UniProt P50406); assay: CNS receptor binding, 5-HT6; details: HEK293 cell line, [3H]-LSD(1)
Sequence of 5-HT6 (P50406 whole entry): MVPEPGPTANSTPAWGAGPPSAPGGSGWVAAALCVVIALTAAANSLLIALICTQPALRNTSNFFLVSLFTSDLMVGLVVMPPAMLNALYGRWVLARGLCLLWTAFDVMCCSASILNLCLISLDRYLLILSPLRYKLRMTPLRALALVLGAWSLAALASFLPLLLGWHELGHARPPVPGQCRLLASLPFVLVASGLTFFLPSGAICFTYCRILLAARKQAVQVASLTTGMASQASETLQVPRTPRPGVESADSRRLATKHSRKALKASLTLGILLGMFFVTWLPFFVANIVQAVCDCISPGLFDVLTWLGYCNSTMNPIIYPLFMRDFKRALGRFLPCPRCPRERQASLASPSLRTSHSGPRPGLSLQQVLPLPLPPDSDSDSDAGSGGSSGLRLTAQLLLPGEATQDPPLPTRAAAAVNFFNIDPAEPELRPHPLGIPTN
Protocol: as §1

[14] = target: 5-HT1A (Homo sapiens, UniProt P08908); assay: CNS receptor binding, 5-HT1A; details: HEK293 cell line, [3H]-8-OH-DPAT(2)
Sequence of 5-HT1A (P08908 whole entry): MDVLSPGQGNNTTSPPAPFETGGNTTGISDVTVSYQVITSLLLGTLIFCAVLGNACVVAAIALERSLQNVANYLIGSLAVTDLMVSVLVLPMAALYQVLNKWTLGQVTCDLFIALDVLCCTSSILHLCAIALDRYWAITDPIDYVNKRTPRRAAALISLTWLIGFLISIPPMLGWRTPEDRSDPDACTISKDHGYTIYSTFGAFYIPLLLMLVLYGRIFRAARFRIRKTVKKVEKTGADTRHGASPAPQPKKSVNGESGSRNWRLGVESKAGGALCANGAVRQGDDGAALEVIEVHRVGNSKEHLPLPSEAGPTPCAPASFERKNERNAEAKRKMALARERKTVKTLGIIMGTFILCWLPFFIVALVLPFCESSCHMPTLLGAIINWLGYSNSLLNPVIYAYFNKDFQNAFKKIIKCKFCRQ
Protocol: as §1

[15] = target: T5, D4 (Homo sapiens, UniProt P21917); assay: CNS receptor binding, dopamine D4; details: HEK293 cell line, [3H]-spiperone(1)
T5 construct: expressed in transfected cells; host or cells: HEK293 cell line
Protocol: as §1

[16] = target: M2 (Homo sapiens, UniProt P08172); assay: CNS receptor binding, muscarinic M2; details: HEK293 cell line, [3H]-NMS(1)
Sequence of M2 (P08172 whole entry): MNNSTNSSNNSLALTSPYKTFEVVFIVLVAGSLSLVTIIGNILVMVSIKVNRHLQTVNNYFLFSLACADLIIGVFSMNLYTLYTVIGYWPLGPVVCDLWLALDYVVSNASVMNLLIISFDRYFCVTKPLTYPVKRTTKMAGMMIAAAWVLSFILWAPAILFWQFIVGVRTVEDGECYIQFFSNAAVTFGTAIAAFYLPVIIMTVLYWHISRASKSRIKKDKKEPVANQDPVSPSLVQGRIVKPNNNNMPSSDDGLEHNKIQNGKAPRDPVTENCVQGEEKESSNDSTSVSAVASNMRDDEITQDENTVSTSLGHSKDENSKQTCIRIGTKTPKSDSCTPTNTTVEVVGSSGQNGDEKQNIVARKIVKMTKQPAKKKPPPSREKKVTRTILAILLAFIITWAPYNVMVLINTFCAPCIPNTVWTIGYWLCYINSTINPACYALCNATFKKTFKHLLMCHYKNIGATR
Protocol: as §1

[17] = target: A2A (Homo sapiens, UniProt P29274); assay: CNS receptor binding, adenosine A2A; details: HEK293 cell line, [3H]-CGS21680(10), read-out: IC50 values for albiflorin
Protocol: as §1

[18] = target: D5 (Homo sapiens, UniProt P21918); assay: CNS receptor binding, dopamine D5; details: HEK293 cell line, [3H]-SCH23390(1)
Protocol: as §1

[19] = read-out: IC50 values for albiflorin

Sequence of M1 (P11229 whole entry): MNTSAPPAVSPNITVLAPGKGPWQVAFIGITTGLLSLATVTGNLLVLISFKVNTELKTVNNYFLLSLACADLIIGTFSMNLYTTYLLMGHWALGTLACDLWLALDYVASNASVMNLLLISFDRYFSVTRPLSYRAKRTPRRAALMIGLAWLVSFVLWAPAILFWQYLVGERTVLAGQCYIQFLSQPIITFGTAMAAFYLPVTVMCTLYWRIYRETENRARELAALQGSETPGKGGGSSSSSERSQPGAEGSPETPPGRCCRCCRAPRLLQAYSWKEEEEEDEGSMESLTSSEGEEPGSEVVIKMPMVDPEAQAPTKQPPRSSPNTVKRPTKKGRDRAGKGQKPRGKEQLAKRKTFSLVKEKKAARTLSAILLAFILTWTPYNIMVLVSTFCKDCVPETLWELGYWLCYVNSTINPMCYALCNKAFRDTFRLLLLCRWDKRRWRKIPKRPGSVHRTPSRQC

## C[C@]12C[C@@H](O)[C@@H]3C[C@@]1(O[C@@H]1O[C@H](CO)[C@@H](O)[C@H](O)[C@H]1O)[C@@]3(COC(=O)c1ccccc1)C(=O)O2 [albiflorin, Albiflorin]
[1]
  % Inhibition of binding at 10 μM albiflorin: 21.28%
[1]; [19]
  IC50: > 10 µM
[2]
  % Inhibition of binding at 10 μM albiflorin: 20.11%
[2]; [19]
  IC50: > 10 µM
[3]
  % Inhibition of binding at 10 μM albiflorin: 6.33%
[3]; [19]
  IC50: > 10 µM
[4]
  IC50: 3.69 ± 0.114 µM
[5]
  IC50: 0.00098 ± 0.00024 µM
[6]; [3H]-BRL3694
  % Inhibition of binding at 10 μM albiflorin: 17.38%
[6]; [3H]-BRL3694, read-out: IC50 values for albiflorin
  IC50: > 10 µM
[7]
  % Inhibition of binding at 10 μM albiflorin: 6.33%
[7]; [19]
  IC50: > 10 µM
[8]; Rat, [3H]-nisoxetine, Hypothalamus
  Ki: 0.00125 ± 0.00077 µM
[8]; albiflorin vs desipramine
  potency/affinity relative to desipramine at the rat NET: 4 fold and 6 fold
[9]; Human, [3H]-citalopram, HEK293 cell line, read-out: Ki values, SERT binding
  Ki: 0.00645 ± 0.00048 µM
[9]; albiflorin vs fluoxetine
  affinity relative to fluoxetine in human SERT binding assay: 17 fold
[10]
  % Inhibition of binding at 10 μM albiflorin: 36.66%
[10]; [19]
  IC50: > 10 µM
[11]
  % Inhibition of binding at 10 μM albiflorin: 54.20%
[11]; [19]
  IC50: 2.99 ± 0.166 µM
[12]
  % Inhibition of binding at 10 μM albiflorin: 56.33%
[12]; [19]
  IC50: 4.71 ± 0.113 µM
[13]
  % Inhibition of binding at 10 μM albiflorin: 22.36%
[13]; [19]
  IC50: > 10 µM
[14]
  % Inhibition of binding at 10 μM albiflorin: 69.60%
[14]; [19]
  IC50: 4 ± 0.662 µM
[15]
  % Inhibition of binding at 10 μM albiflorin: 19.50%
[15]; [19]
  IC50: > 10 µM
[16]
  % Inhibition of binding at 10 μM albiflorin: 13.33%
[16]; [19]
  IC50: > 10 µM
[17]
  IC50: > 10 µM
[18]
  % Inhibition of binding at 10 μM albiflorin: 32.50%
[18]; [19]
  IC50: > 10 µM

From publication PMC5028780, “Receptor and transporter binding and activity profiles of albiflorin extracted from Radix paeoniae Alba” (Scientific Reports, 2016)
